Experimental data: ChEMBL document CHEMBL4346757, “Synthesis and biological evaluation of 7-methoxy-1-(3,4,5-trimethoxyphenyl)-4,5-dihydro-2H-benzo[e]indazoles as new colchicine site inhibitors” (Bioorg Med Chem Lett, 2019)

Assays:
Format in all cases: functional
A498 = test: Growth inhibition of human A498 cells assessed as cell growth at 0.01 uM after 48 hrs by SRB assay relative to control; conditions: A498, 48 h, read-out: Activity
BT-549 = test: Growth inhibition of human BT549 cells assessed as cell growth at 100 uM after 48 hrs by SRB assay relative to control; conditions: BT-549, 48 h, read-out: Activity
NCI/ADR-RES = test: Cytotoxicity against human NCI-ADR-RES cells assessed as growth inhibition after 48 hrs by SRB assay
SNB-19 [1] = test: Growth inhibition of human SNB19 cells assessed as cell growth at 1 uM after 48 hrs by SRB assay relative to control; conditions: SNB-19, 48 h, read-out: Activity
SR = test: Growth inhibition of human SR cells assessed as cell growth at 100 uM after 48 hrs by SRB assay relative to control; conditions: read-out: Activity
COLO 205 [2] = test: Cytotoxicity against human COLO205 cells assessed as growth inhibition after 48 hrs by SRB assay; conditions: COLO 205, 48 h
UO-31 = test: Growth inhibition of human UO31 cells assessed as cell growth at 100 uM after 48 hrs by SRB assay relative to control; conditions: UO-31, 48 h, read-out: Activity
SW-620 = test: Growth inhibition of human SW620 cells assessed as cell growth at 100 uM after 48 hrs by SRB assay relative to control; conditions: SW-620, 48 h, read-out: Activity
MDA-MB-468 = test: Growth inhibition of human MDA-MB-468 cells assessed as cell growth at 0.1 uM after 48 hrs by SRB assay relative to control; conditions: MDA-MB-468, 48 h, read-out: Activity
HOP-92 = test: Growth inhibition of human HOP92 cells assessed as cell growth at 1 uM after 48 hrs by SRB assay relative to control; conditions: HOP-92, 48 h, read-out: Activity
COLO 205 [3] = test: Growth inhibition of human COLO205 cells assessed as cell growth at 100 uM after 48 hrs by SRB assay relative to control; conditions: COLO 205, 48 h, read-out: Activity
OVCAR-4 [4] = test: Growth inhibition of human OVCAR4 cells assessed as cell growth at 100 uM after 48 hrs by SRB assay relative to control; conditions: OVCAR-4, 48 h, read-out: Activity
EKVX = test: Cytotoxicity against human EKVX cells assessed as growth inhibition after 48 hrs by SRB assay
UACC-257 [5] = test: Growth inhibition of human UACC257 cells assessed as cell growth at 100 uM after 48 hrs by SRB assay relative to control; conditions: UACC-257, 48 h, read-out: Activity
HT-29 = test: Growth inhibition of human HT-29 cells assessed as cell growth at 1 uM after 48 hrs by SRB assay relative to control; conditions: HT-29, 48 h, read-out: Activity
RPMI-8226 = test: Cytotoxicity against human RPMI8226 cells assessed as growth inhibition after 48 hrs by SRB assay; conditions: RPMI-8226, 48 h
UACC-257 [6] = test: Growth inhibition of human UACC257 cells assessed as cell growth at 0.01 uM after 48 hrs by SRB assay relative to control; conditions: UACC-257, 48 h, read-out: Activity
K562 = test: Growth inhibition of human K562 cells assessed as cell growth at 100 uM after 48 hrs by SRB assay relative to control; conditions: K562, 48 h, read-out: Activity
HCC 2998 = test: Growth inhibition of human HCC2998 cells assessed as cell growth at 10 uM after 48 hrs by SRB assay relative to control; conditions: HCC 2998, 48 h, read-out: Activity
SNB-19 [7] = test: Growth inhibition of human SNB19 cells assessed as cell growth at 0.01 uM after 48 hrs by SRB assay relative to control; conditions: SNB-19, 48 h, read-out: Activity
OVCAR-4 [8] = test: Cytotoxicity against human OVCAR4 cells assessed as growth inhibition after 48 hrs by SRB assay; conditions: OVCAR-4, 48 h
T47D = test: Growth inhibition of human T47D cells assessed as cell growth at 100 uM after 48 hrs by SRB assay relative to control; conditions: read-out: Activity
A549 = test: Growth inhibition of human A549/ATCC cells assessed as cell growth at 0.1 uM after 48 hrs by SRB assay relative to control; conditions: A549, 48 h, read-out: Activity
HOP-62 = test: Growth inhibition of human HOP62 cells assessed as cell growth at 10 uM after 48 hrs by SRB assay relative to control; conditions: HOP-62, 48 h, read-out: Activity
MDA-MB-435 = test: Growth inhibition of human MDA-MB-435 cells assessed as cell growth at 1 uM after 48 hrs by SRB assay relative to control; conditions: MDA-MB-435, 48 h, read-out: Activity
[9] = read-out: LC50 (the source's name)
[10] = read-out: pLC50 (the source's name) (converted)

COc1ccc2c(c1)CCc1n[nH]c(-c3cc(OC)c(OC)c(OC)c3)c1-2
growth at 0.01 µM (A498): -11% | growth at 100 µM (BT-549): -36% | GI50 (NCI/ADR-RES; read-out: GI50): < 0.01 µM | LC50 (NCI/ADR-RES; read-out: LC50): > 100 µM | TGI (NCI/ADR-RES; read-out: TGI): < 0.01 µM | GI50 (NCI/ADR-RES; read-out: pGI50 (converted)): < 0.01 µM | LC50 (NCI/ADR-RES; read-out: pLC50 (converted)): > 100 µM | TGI (NCI/ADR-RES; read-out: pTGI): < 0.01 µM | growth at 1 µM (SNB-19 [1]): 34% | growth at 100 µM (SR): -15% | GI50 (COLO 205 [2]; read-out: GI50): < 0.01 µM | CC50 (COLO 205 [2]; [9]): 0.249 µM | TGI (COLO 205 [2]; read-out: TGI): < 0.01 µM | GI50 (COLO 205 [2]; read-out: pGI50 (converted)): < 0.01 µM | CC50 (COLO 205 [2]; [10]): 0.251 µM | TGI (COLO 205 [2]; read-out: pTGI): < 0.01 µM | growth at 100 µM (UO-31): -43% | growth at 100 µM (SW-620): -75% | growth at 0.1 µM (MDA-MB-468): -2% | growth at 1 µM (HOP-92): 27% | growth at 100 µM (COLO 205 [3]): -71% | growth at 100 µM (OVCAR-4 [4]): -12% | CC50 (EKVX; [9]): > 100 µM | TGI (EKVX; read-out: TGI): 39 µM | CC50 (EKVX; [10]): > 100 µM | TGI (EKVX; read-out: pTGI (converted)): 38.9 µM | growth at 100 µM (UACC-257 [5]): -49% | growth at 1 µM (HT-29): 5% | CC50 (RPMI-8226; [9]): > 100 µM | TGI (RPMI-8226; read-out: TGI): > 100 µM | CC50 (RPMI-8226; [10]): > 100 µM | TGI (RPMI-8226; read-out: pTGI): > 100 µM | growth at 0.01 µM (UACC-257 [6]): 47% | growth at 100 µM (K562): 7% | growth at 10 µM (HCC 2998): 5% | growth at 0.01 µM (SNB-19 [7]): 33% | GI50 (OVCAR-4 [8]; read-out: GI50): < 0.01 µM | LC50 (OVCAR-4 [8]; read-out: LC50): > 100 µM | TGI (OVCAR-4 [8]; read-out: TGI): 56.5 µM | GI50 (OVCAR-4 [8]; read-out: pGI50 (converted)): < 0.01 µM | LC50 (OVCAR-4 [8]; read-out: pLC50 (converted)): > 100 µM | TGI (OVCAR-4 [8]; read-out: pTGI (converted)): 56.2 µM | growth at 100 µM (T47D): -72% | growth at 0.1 µM (A549): 11% | growth at 10 µM (HOP-62): 3% | growth at 1 µM (MDA-MB-435): -35%
